# Reference: patent US4242354A, “2-(2-Thenolythio)-propionylglycine: method for its preparation and pharmaceutical formulations containing said compound” (Mediolanum Farmaceutici S.r.L., priority 1978, dated 1980)
# Tests used:
# dog = assay: Chronic toxicity in the dog; type: in vivo; conditions: dogs
# mercuric chloride = assay: In vivo protective action against mercurial compounds; parameters: species or system male mice (Swiss strain); conditions: mercuric chloride 20 mg/kg ip, mice, 24 hours
# Description: Forty male mice (Swiss strain, 22 grams mean bodyweight) were used for the investigation, subdivided into 4 groups treated as follows:
# (1) mercuric chloride, 20 mg/kg/intraperitoneally;
# (4) mercuric chloride 20 mg/kg/intraperitoneally+2-thiopropionylglycine 300 mg/kg/intraperitoneally.
# Deaths occurred were recorded hourly in the first 5 hours, and thereafter after 24 hours.
# [1] = Stability test: physical properties and weight variations on heating; type: physicochemical
# Description: (§1) The stability tests were carried out according to the Rogers' nonisothermic method suitably integrated by the evaluation of physical data, melting point, weight variation, and spectrophotometric assay. For each single compound, the tests were performed on a series of samples, with the weight of 100 milligrams, added for the wet tests with 1 ml of distilled water. […] The sample were kept in a thermostat at increasing temperatures, i.e. from 25° to 80° C. […] The temperature, programmed according to the Rogers' formula, resulted to be 40° C. at the end of the first hour, 50° C. at the end of the second hour, 57° C. at the end of the third hour, 63° C. at the end of the fourth hour, 69° C. at the end of the fifth hour, 73° C. at the end of the sixth hour, 77° C. at the end of the seventh hour and, as already specified, 80° C. at the end of the eighth hour.
# Still in Table 5, the sample from 1 to 5 refer, for each of the two compounds, to the dry substance while the samples from 6 to 10 refer to the solution or to the aqueous suspension obtained as above specified.
# In the case of the wet-treated samples, the final weight was only established on the samples No. 10 brought to dryness at 60° C. under vacuum after an 8-hour heating.
# [2] = Stability test: melting point before and after heating; type: physicochemical
# Description: as §1
# The melting point was established in a capillary tube, under identical conditions, on the samples No. 5 after heating for 8 hours in the previously specified conditions, and on the samples No. 10 after heating and evaporation to dryness as previously specified.
# [3] = tested on: SO2-induced experimental bronchitis; assay: Experimental bronchitis in the rat (SO2 inhalation); type: in vivo, male rats, Sprague-Dawley strain; parameters: key to Macroscopic Examination, significance vs. controls (S) / Visualization of the bronchial tract, significance vs. controls (S) / Microscopic Examination, significance vs. controls (S): h.s.: highly significant; conditions: 50 mg/kg; for Visualization of the bronchial tract score (E, mean ± standard error): control 2.50 ± 0.26; for Microscopic Examination score (E, mean ± standard error): control 2.75 ± 0.16
# Description: For the purpose 40 male rats, Sprague-Dawley strain, 320-370 grams, subdivided into 4 groups each consisting of 10 elements were subjected to the following treatments:
# Group 1: poisoning treatment (SO2)
# For the poisoning-induction the animals were subjected to a constant air flow containing SO2 at a 0.03 percent concentration. The poisoning treatment was given for 15 days subjecting the rats, 2 hours daily, to an inhalation of SO2 for 15-minute periods. […] The animals were killed on the day following the last inhalation.
# The lungs were withdrawn together with the trachea, fixed in 10 percent formalin, and subjected to a macroscopic examination, dipped thereafter into the same fixing fluid for 24 hours, and thereafter for one hour in absolute ethanol.
# The bronchial tree was thereafter evidenced with alcian blue; moreover, a subsequent staining was made with the Schiff's reagent in order to evidence the muchopolysaccharides.
# Each lung was given the following arbitary score:
# (1) Macroscopic Examination:
# 5=large hemorrhagic spots
# (2) Visualization of the Bronchial Tree with Alcian Blue:
# 1=almost uniform staining
# 3=quite irregular staining.
# (3) Bronchopulmonary Alterations at the Microscopic Examination: […]
# [4] = tested on: citric acid-induced experimental bronchitis; assay: Experimental bronchitis due to citric acid in the guinea-pig; type: in vivo, spotted guinea-pigs, Morini strain; parameters: key to Microscopic Examination (Table 12), significance vs. controls (S) / Visualization of the bronchial tract, significance vs. controls (S) / Microscopic Examination (Table 14), significance vs. controls (S): h.s.: highly significant; Microscopic Examination score (Table 12; E, mean ± standard error) / Visualization of the bronchial tract score (E, mean ± standard error) / Microscopic Examination score (Table 14; E, mean ± standard error): scale not given here; conditions: 50 mg/kg; for Microscopic Examination score (Table 12; E, mean ± standard error): control 4.00 ± 0.25; for Microscopic Examination score (Table 14; E, mean ± standard error): control 3.00 ± 0.00; for Visualization of the bronchial tract score (E, mean ± standard error): control 2.83 ± 0.16
# Description: Twenty-four spotted guinea-pigs, Morini strain, bodyweight 450 grams approximately, were used for the investigation, subdivided into 4 groups, each consisting of 6 animals, subjected to the following treatments:
# Group 1: poisoning treatment with citric acid
# The poisoning was made introducing the experimental animals into tight-sealed plexiglass cages containing a solution of 7.5 percent citric acid for 15 minutes daily, 6 days weekly, for 4 weeks.
# The animals were sacrificed on the day after the last application, and the lungs were subjected to the same treatments and to the same assessments performed with the same scores already used in the case of the rat.
# [5] = sample 1, dry, 1 hour 30 minutes
# [6] = sample 3, dry, 5 hours 15 minutes
# [7] = sample 10, wet, 8 hours, brought to dryness
# [8] = group 3, aerosol (so in the source)
structure (smiles),measurement,setting,value
"CC(SC(=O)c1cccs1)C(=O)NCC(=O)O (stereo not shown) [compound (I), 2-(2-thenoylthio)-propionylglycine]",chronic toxicity results,dog,optimal
same,deaths,mercuric chloride; 200 mg/kg ip,10%
same,deaths,mercuric chloride; 300 mg/kg ip,10%
same,Color,[1]; [5],white
same,Smell,[1]; [5],almost absent
same,Weight Fin.,[1]; [5],95.4 mg
same,Weight Variations,[1]; [5],-5.26%
same,Color,"[1]; sample 2, dry, 3 hours",white
same,Weight Fin.,"[1]; sample 2, dry, 3 hours",94.5 mg
same,Weight Variations,"[1]; sample 2, dry, 3 hours",-5.03%
same,Color,[1]; [6],white
same,Smell,[1]; [6],almost absent
same,Weight Fin.,[1]; [6],95.1 mg
same,Weight Variations,[1]; [6],-5.37%
same,Color,"[1]; sample 4, dry, 8 hours",white
same,Smell,"[1]; sample 4, dry, 8 hours",almost absent
same,Weight Fin.,"[1]; sample 4, dry, 8 hours",94.9 mg
same,Weight Variations,"[1]; sample 4, dry, 8 hours",-5.74%
same,Smell,"[1]; sample 5, dry, 8 hours",almost absent
same,Weight Fin.,"[1]; sample 5, dry, 8 hours",194.1 mg
same,Weight Variations,"[1]; sample 5, dry, 8 hours",-3.67%
same,Smell,"[1]; sample 6, wet",almost absent
same,Smell,"[1]; sample 7, wet",almost absent
same,Smell,"[1]; sample 8, wet",almost absent
same,Smell,"[1]; sample 9, wet",almost absent
same,Weight Fin.,[1]; [7],201.3 mg
same,Weight Variations,[1]; [7],-2.94%
same,melting point variation,[2]; after heating,no variations
same,Final m.p. wet conditions (Sample 10),[2]; after heating 8 hours wet and evaporation to dryness,166-167 °C
same,Final m.p. dry conditions (Sample 5),"[2]; after heating for 8 hours, dry",166-167 °C
same,Initial m.p.,[2]; before heating,166-167 °C
same,"Macroscopic Examination, significance vs. controls (S)","[3]; group 2, aerosol",h.s.
same,"Microscopic Examination, significance vs. controls (S)","[3]; group 2, aerosol",h.s.
same,"Visualization of the bronchial tract, significance vs. controls (S)","[3]; group 2, aerosol",h.s.
same,"Visualization of the bronchial tract score (E, mean ± standard error)","[3]; group 2, aerosol",0.87 ± 0.29
same,"Microscopic Examination score (E, mean ± standard error)","[3]; group 2, aerosol",0.87 ± 0.29
same,"Macroscopic Examination, significance vs. controls (S)",[3]; [8],h.s.
same,"Microscopic Examination, significance vs. controls (S)",[3]; [8],h.s.
same,"Visualization of the bronchial tract, significance vs. controls (S)",[3]; [8],h.s.
same,"Visualization of the bronchial tract score (E, mean ± standard error)",[3]; [8],0.87 ± 0.29
same,"Microscopic Examination score (E, mean ± standard error)",[3]; [8],0.75 ± 0.31
same,"Macroscopic Examination score (E, mean ± standard error)","[3]; group 3, aerosol (so in the source), control 4.00 ± 0.26",1.12 ± 0.39
same,"Macroscopic Examination, significance vs. controls (S)","[3]; group 4, subcutaneous",h.s.
same,"Microscopic Examination, significance vs. controls (S)","[3]; group 4, subcutaneous",h.s.
same,"Visualization of the bronchial tract, significance vs. controls (S)","[3]; group 4, subcutaneous",h.s.
same,"Visualization of the bronchial tract score (E, mean ± standard error)","[3]; group 4, subcutaneous",0.75 ± 0.31
same,"Microscopic Examination score (E, mean ± standard error)","[3]; group 4, subcutaneous",1.00 ± 0.26
same,"protective action, experimental bronchitis (SO2)",[3]; rat,marked protective action
same,"Microscopic Examination (Table 12), significance vs. controls (S)","[4]; Table 12, group 2, orally",h.s.
same,"Microscopic Examination score (Table 12; E, mean ± standard error)","[4]; Table 12, group 2, orally",2.00 ± 0.36
same,"Microscopic Examination (Table 12), significance vs. controls (S)","[4]; Table 12, group 3, aerosol",h.s.
same,"Microscopic Examination score (Table 12; E, mean ± standard error)","[4]; Table 12, group 3, aerosol",2.33 ± 0.49
same,"Microscopic Examination (Table 12), significance vs. controls (S)","[4]; Table 12, group 4, rectally",h.s.
same,"Microscopic Examination score (Table 12; E, mean ± standard error)","[4]; Table 12, group 4, rectally",1.83 ± 0.40
same,"Microscopic Examination (Table 14), significance vs. controls (S)","[4]; Table 14, group 2, orally",h.s.
same,"Microscopic Examination score (Table 14; E, mean ± standard error)","[4]; Table 14, group 2, orally",0.83 ± 0.30
same,"Microscopic Examination (Table 14), significance vs. controls (S)","[4]; Table 14, group 3, aerosol",h.s.
same,"Microscopic Examination score (Table 14; E, mean ± standard error)","[4]; Table 14, group 3, aerosol",1.00 ± 0.36
same,"Microscopic Examination (Table 14), significance vs. controls (S)","[4]; Table 14, group 4, rectally",h.s.
same,"Microscopic Examination score (Table 14; E, mean ± standard error)","[4]; Table 14, group 4, rectally",0.66 ± 0.42
same,"Visualization of the bronchial tract, significance vs. controls (S)","[4]; group 2, orally",h.s.
same,"Visualization of the bronchial tract score (E, mean ± standard error)","[4]; group 2, orally",1.16 ± 0.30
same,"Visualization of the bronchial tract, significance vs. controls (S)","[4]; group 3, aerosol",h.s.
same,"Visualization of the bronchial tract score (E, mean ± standard error)","[4]; group 3, aerosol",1.00 ± 0.36
same,"Visualization of the bronchial tract, significance vs. controls (S)","[4]; group 4, rectally",h.s.
same,"Visualization of the bronchial tract score (E, mean ± standard error)","[4]; group 4, rectally",1.00 ± 0.44
same,"protective action, experimental bronchitis (citric acid)",[4]; guinea-pig,marked protective action
